# “Also recorded” adds a separate entry of the source. Like-named read-outs stand apart in the source and are kept apart here.
# Experiments:
# MRSA (SCCmec VT) = experiment: MIC, broth microdilution; format: cell-based, methicillin-resistant Staphylococcus aureus
# MRSA 33592 = experiment: Survival of MRSA-infected mice; format: in vivo, C57BL/6 mice; settings: once, 1 h postinfection, 5×10^7 CFU i.p.
# Protocol: (A) Effect of intraperitoneal administration of Cpd-36 and Cpd-46 on survival of methicillin-resistant Staphylococcus aureus-infected mice. C57BL/6 mice were inoculated intraperitoneally with 5×10^7 CFU of MRSA 33592. At 1 h postinfection, mice were treated intraperitoneally once with vehicle, Cpd-36 or Cpd-46 at 30 mg/kg (B) Effect of oral administration of Cpd-46 on survival of MRSA 33592-infected mice. One hour after intraperitoneal inoculation with 5×10^7 CFU of MRSA 33592, C57BL/6 mice were treated orally once with Cpd-46 at 100 mg/kg or vehicle. Survival data are presented as Kaplan-Meier survival curves for each treatment group (n=5). The difference in the mean survival times of the groups was statistically significant at P values of 0.05.
# [1] = test system: HT-29 human colon adenocarcinoma cells; experiment: Antiproliferative assay (MTT); format: cell-based; settings: for IC50: Homo sapiens, HT-29; for IC50 / IC50 HT-29 cells: 24-h exposure, 10% FBS-supplemented RPMI 1640, MTT
# Protocol: As celecoxib has been reported to be cytotoxic to cancer cells, the growth inhibitory activities of celecoxib and selected derivatives were assessed in. HT-29 human colon adenocarcinoma cells after 24-h exposure in 10% FBS-supplemented RPMI 1640 medium.
# Antiproliferative assay. The cytotoxicity of individual test agents in HT-29 human colon adenocarcinoma cells was evaluated by using the 3-(4,5-dimethylthiazol-2-yl)-2,5-diphenyltetrazolium (MTT) assay. Briefly, HT-29 cells were seeded into 96-well plates at 1×10^4 cells/well (with a minimum of 6 wells per test condition) in RPMI 1640 medium supplemented with 10% FBS and 10 μg/ml of gentamicin. After overnight incubation at 37° C. under 5% CO2, the medium from each well was removed and replenished with fresh aliquots of the same medium containing various concentrations of test agents dissolved in DMSO (final concentration, 0.1%). Control cells were treated with DMSO alone at a concentration equal to that in drug-treated cells. After 24 h of drug exposure, the medium was removed and replaced by 100 μl of 0.5 mg/ml MTT in 10% FBS-containing medium, and the cells were incubated in the CO2 incubator at 37° C. for 2 h. Subsequently, medium was removed from each well, and the reduced MTT dye was dissolved with 100 μl of DMSO per well. Absorbance at 570 nm was measured with a plate reader. The 50% inhibitory concentration (IC50) of each drug was determined from dose-response curves by using CalcuSyn software (Biosoft, Cambridge, United Kingdom).
# MRSA ATCC 33592 = experiment: Time-kill assay; format: cell-based, methicillin-resistant Staphylococcus aureus
# Protocol: Numbers of viable bacteria in the broth after each exposure period were enumerated by CFU assay, and the results expressed as CFU/ml. Points indicate means, and bars indicate SD (n=3). The dashed line represents 99.9% cell killing. Ctl, control.
# Otherwise, it is considered bacteriostatic. Pankey, G. A.; Sabath, L. D. Clin. Infect. Dis., 38, 864-870 (2004). To category these novel agents, represented by compounds 9, 36, and 46, in this regard, their time-killing kinetics were assessed in MRSA ATCC 33592 over a 24-h treatment period. Overnight-grown bacteria were inoculated in cation-adjusted Muller Hinton broth (CAMHB) at a concentration of 5×10^5 CFU/ml followed by exposure to individual compounds at 2- to 8-fold their respective MIC values. […] Accordingly, compounds 36 and 46 were classified as bactericidal. As the killing was time-dependent, the antibacterial effect of these agents was not caused by the disruption of membrane integrity.
# Time-kill assay. To analyze the kinetics of bacterial cell killing, MRSA ATCC 33592 cells at a density of 5×10^5 CFU/ml were treated with test agents at 2-, 4-, and 8-fold MICs in triplicate in 24-well plates. Bacterial survival in medium containing DMSO at a concentration equal to that used for drug-treated bacteria served as control. At different times after the start of drug exposure, a 100 μl aliquot of the bacterial suspension was taken from each well and serially diluted with PBS. The diluted samples were spread onto LB agar plates followed by incubation at 37° C. for 16 h. The bacterial colonies on each plate were enumerated, and the number of viable bacteria in each well was expressed as CFU per milliliter.
# S. aureus (ATCC 29213) = experiment: MIC, broth microdilution; format: cell-based
# [2] = test system: S. epidermidis (ATCC 35984); experiment: MIC, broth microdilution; format: cell-based
# MRSA (ATCC 33592) = experiment: MIC, broth microdilution; format: cell-based, methicillin-resistant Staphylococcus aureus
# [3] = test system: S. epidermidis (ATCC 12228); experiment: MIC, broth microdilution; format: cell-based; settings: Staphylococcus epidermidis, ATCC12228
# S. aureus (ATCC 12598) = experiment: MIC, broth microdilution; format: cell-based; settings: Staphylococcus aureus, ATCC12598
# MRSA (ATCC 49476) = experiment: MIC, broth microdilution; format: cell-based, methicillin-resistant Staphylococcus aureus; settings: Staphylococcus aureus
# S. aureus = experiment: CFU of S. aureus after exposure to celecoxib at the MIC; format: cell-based; settings: at the MIC of 32 μg/ml, after 24 h
# Source text: The inventors examined the suppressive effect of celecoxib on the growth of S. aureus (ATCC 29213), S. epidermidis (ATCC 35984), and two different strains of MRSA (ATCC 33592 and SCCmec VT), as shown in Table IX.
# [4] = Table XIII, S. aureus (SSCmecVT)
# [5] = Staphylococcus aureus, ATCC29213, Table IX, S. aureus (ATCC 29213), read-out: MIC
# [6] = Staphylococcus epidermidis, ATCC35984, Table IX, S. epidermidis (ATCC 35984), read-out: MIC
# [7] = Staphylococcus aureus, MRSA, read-out: MIC MRSA (SCCmec VT)
# [8] = Staphylococcus aureus, ATCC29213, 24 h, CAMHB, 24 h, 37° C., read-out: MIC S. aureus (ATCC 29213)
# [9] = Staphylococcus aureus, read-out: MIC MRSA (ATCC 33592)
structure (smiles),measurement,setting,value
"NS(=O)(=O)Nc1ccc(-n2nc(C(F)(F)F)cc2-c2c3ccccc3cc3ccccc23)cc1 [Compound 46, N-[4-(5-Anthracen-9-yl-3-trifluoromethyl-pyrazol-1-yl)-phenyl]-aminosulfonamide]",MIC,MRSA (SCCmec VT); [4],0.5 µg/mL
same,survival of MRSA-infected mice,"MRSA 33592; intraperitoneal, 30 mg/kg",improve the survival
same,survival of MRSA-infected mice,"MRSA 33592; oral, 100 mg/kg",improve the survival
same,IC50,[1],20 µg/mL
same,Selectivity ratio,[1]; IC50 (HT-29) / MIC against S. aureus,40
same,reduction in CFU,"MRSA ATCC 33592; after 24-h exposure to 8 times the MIC, CAMHB",99.99%
same,classification bactericidal / bacteriostatic,MRSA ATCC 33592; bactericidal = 99.9% reduction in inoculum within 24 h,bactericidal; also recorded: bacteriostatic
NC[C@H]1O[C@H](O[C@H]2[C@H](O)[C@@H](O[C@H]3O[C@H](CO)[C@@H](O)[C@H](N)[C@H]3O)[C@H](N)C[C@@H]2N)[C@H](O)[C@@H](O)[C@@H]1O [Kanamycia],MIC,MRSA (SCCmec VT); [4],> 64 µg/mL
"CN(C)[C@@H]1C(O)=C(C(N)=O)C(=O)[C@@]2(O)C(O)=C3C(=O)c4c(O)cccc4[C@@](C)(O)[C@H]3C[C@@H]12 [Tetracycline, tetracycline, reference compound]",MIC,MRSA (SCCmec VT); [4],16 µg/mL
"O=C(N[C@H](CO)[C@H](O)c1ccc([N+](=O)[O-])cc1)C(Cl)Cl [Chloramphenicol, chloramphenicol, reference compound]",MIC,MRSA (SCCmec VT); [4],> 64 µg/mL
"CS(=O)(=O)c1ccc(C2=C(c3ccccc3)C(=O)OC2)cc1 [Rofecoxib, rofecoxib, reference compound]",MIC,"MRSA (SCCmec VT); Staphylococcus aureus, MRSA, Table IX, MRSA (SCCmec VT), read-out: MIC",> 64 µg/mL
same,MIC,"MRSA (SCCmec VT); Table IX, MRSA (SCCmec VT)",NE (no effect of the test agent at 64 μg/ml)
same,MIC,S. aureus (ATCC 29213); [5],> 64 µg/mL
same,MIC,"S. aureus (ATCC 29213); Table IX, S. aureus (ATCC 29213)",NE (no effect of the test agent at 64 μg/ml)
same,MIC,[2]; [6],> 64 µg/mL
same,MIC,"[2]; Table IX, S. epidermidis (ATCC 35984)",NE (no effect of the test agent at 64 μg/ml)
same,MIC,"MRSA (ATCC 33592); Staphylococcus aureus, Table IX, MRSA (ATCC 33592), read-out: MIC",> 64 µg/mL
same,MIC,"MRSA (ATCC 33592); Table IX, MRSA (ATCC 33592)",NE (no effect of the test agent at 64 μg/ml)
"Cc1ccc(-c2cc(C(F)(F)F)nn2-c2ccc(NS(N)(=O)=O)cc2)cc1 [Compound 41, N-[4-(5-p-Tolyl-3-trifluoromethyl-pyrazol-1-yl)-phenyl]-aminosulfonamide]",MIC,[3],4 µg/mL
same,MIC,S. aureus (ATCC 12598),4 µg/mL
same,MIC,MRSA (SCCmec VT); [7],4 µg/mL
same,MIC,MRSA (ATCC 49476),4 µg/mL
same,MIC,S. aureus (ATCC 29213); [8],4 µg/mL
same,MIC,"[2]; Staphylococcus epidermidis, ATCC35984, 24 h, CAMHB, 24 h, 37° C., read-out: MIC S. epidermidis (ATCC 35984)",4 µg/mL
same,IC50,[1],28 µg/mL
same,MIC,MRSA (ATCC 33592); [9],4 µg/mL
CC1(C)S[C@@H]2[C@H](NC(=O)[C@H](N)c3ccccc3)C(=O)N2[C@H]1C(=O)O [Ampicillin],MIC,MRSA (SCCmec VT); [4],> 64 µg/mL
"[H]/N=C(/N)N[C@H]1[C@H](O)[C@@H](O)[C@H](O[C@@H]2O[C@@H](C)[C@](O)(C=O)[C@H]2O[C@@H]2O[C@@H](CO)[C@H](O)[C@@H](O)[C@@H]2NC)[C@@H](N/C(N)=N\[H])[C@@H]1O [Streptomycin, streptomycin, reference compound]",MIC,MRSA (SCCmec VT); [4],> 64 µg/mL
"Cc1ccc(-c2ccc(-c3cc(C(F)(F)F)nn3-c3ccc(NS(N)(=O)=O)cc3)cc2)cc1 [Compound 43, N-{4-[5-(4′-Methylbiphenyl-4-yl)-3-trifluoromethyl-pyrazol-1-yl]-phenyl}-aminosulfonamide]",MIC,[3],1 µg/mL
same,MIC,S. aureus (ATCC 12598),1 µg/mL
same,MIC,MRSA (SCCmec VT); [7],1 µg/mL
same,MIC,MRSA (ATCC 49476),1 µg/mL
same,MIC,S. aureus (ATCC 29213); [8],1 µg/mL
same,IC50,[1],9 µg/mL
same,MIC,MRSA (ATCC 33592); [9],1 µg/mL
NCCC(=O)Nc1ccc(-n2nc(C(F)(F)F)cc2-c2ccc3c(ccc4ccccc43)c2)cc1 [Compound 27],MIC S. aureus (ATCC 29213),"S. aureus (ATCC 29213); CAMHB, 24 h, 37° C.",4 µg/mL
same,MIC S. epidermidis (ATCC 35984),"[2]; CAMHB, 24 h, 37° C.",4 µg/mL
same,IC50 HT-29 cells,[1],6 µg/mL
NCCCC[C@H](N)C(=O)Nc1ccc(-n2nc(C(F)(F)F)cc2-c2ccc3c(c2)Nc2ccccc2S3)cc1 [Compound 35],MIC S. aureus (ATCC 29213),"S. aureus (ATCC 29213); CAMHB, 24 h, 37° C.",4 µg/mL
same,MIC S. epidermidis (ATCC 35984),"[2]; CAMHB, 24 h, 37° C.",4 µg/mL
same,IC50 HT-29 cells,[1],5.2 µg/mL
NCC(=O)Nc1ccc(-n2nc(C(F)(F)F)cc2-c2ccc3oc4ccccc4c3c2)cc1 [Compound 25],MIC S. aureus (ATCC 29213),"S. aureus (ATCC 29213); CAMHB, 24 h, 37° C.",4 µg/mL
same,MIC S. epidermidis (ATCC 35984),"[2]; CAMHB, 24 h, 37° C.",4 µg/mL
same,IC50 HT-29 cells,[1],6.5 µg/mL
"NS(=O)(=O)Nc1ccc(-n2nc(C(F)(F)F)cc2-c2ccc(-c3ccc(Br)cc3)cc2)cc1 [Compound 44, N-{4-[5-(4′-Bromobiphenyl-4-yl)-3-trifluoromethyl-pyrazol-1-yl]-phenyl}-aminosulfonamide]",MIC,[3],1 µg/mL
same,MIC,S. aureus (ATCC 12598),1 µg/mL
same,MIC,MRSA (SCCmec VT); [7],1 µg/mL
same,MIC,MRSA (ATCC 49476),1 µg/mL
same,MIC,S. aureus (ATCC 29213); [8],1 µg/mL
same,IC50,[1],10 µg/mL
same,MIC,MRSA (ATCC 33592); [9],1 µg/mL
"NS(=O)(=O)Nc1ccc(-n2nc(C(F)(F)F)cc2-c2ccc(-c3ccccc3)cc2)cc1 [Compound 42, N-[4-(5-Biphenyl-4-yl-3-trifluoromethyl-pyrazol-1-yl)-phenyl]-aminosulfonamide]",MIC,S. aureus (ATCC 12598),1 µg/mL
same,MIC,MRSA (SCCmec VT); [7],1 µg/mL
same,MIC,MRSA (ATCC 49476),1 µg/mL
same,MIC,S. aureus (ATCC 29213); [8],1 µg/mL
same,IC50,[1],16 µg/mL
same,MIC,MRSA (ATCC 33592); [9],1 µg/mL
"Cc1ccc(-c2cc(C(F)(F)F)nn2-c2ccc(S(N)(=O)=O)cc2)cc1 [Celecoxib, celecoxib]",decrease in CFU relative to control,S. aureus,6 log
same,MIC,S. aureus (ATCC 29213); [5],32 µg/mL
same,MIC,[2]; [6],16 µg/mL
same,IC50,[1],18 µg/mL

# — patent US9079899B2, “Anti-staphylococcal celecoxib derivatives” (THE OHIO STATE UNIVERSITY, priority 2010, dated 2015)
